Reference: US20150018305A1, “SIRTUIN INDUCER, TISSUE REPAIRING AGENT, HEPATOCYTE GROWTH FACTOR INDUCER, TISSUE HOMEOSTASIS MAINTENANCE AGENT, AND TLR4 AGONIST, HAVING HYALURONIC ACID FRAGMENT AS ACTIVE INGREDIENT” (HYALURONAN RESEARCH INSTITUTE, INC., priority 2012, published 2015)

Experiments:
[1] = system: human sirtuin proteins (SIRT1); test: Sirtuin induction in human epidermal keratinocytes, anti human SIRT1 antibody staining (Test Example 1); format: cell-based; settings: 24 hours
Description: Human epidermal keratinocytes (normal human keratinocytes from a person) were cultured and prepared. Following culture of the human keratinocytes in a prolonged culture growth medium (EpiLife-KG2) at 37° C. under 5% CO2, the cells were recovered by trypsin treatment. The cells were then inoculated into a 96-well plate (100 μL per well) and cultured overnight. Following completion of culture, the culture broth from each well was transferred to a culture medium (keratinocyte SFM made by Gibco) to which no hyaluronic acid fragments were added, or to the same culture medium to which a hyaluronic acid fragment (4mer) was added to a final concentration of 0.01 ng/ml, 0.1 ng/ml, 1.0 ng/ml, or 10 ng/ml, and cultured for 24 hours.
After 24 hours had passed, the cells in each well were stained with the anti human SIRT1 antibody. The anti human SIRT1 antibody is an antibody that recognizes and stains human sirtuin proteins. The stained cells were observed under a microscope (made by Nikon), taking photographs of cell morphology and stained images of cells.

[2] = system: sirtuin enzymatic activity (sirt1 enzymatic activity); test: Sirtuin enzymatic activity in cell solution of human epidermal keratinocytes, CycLex SIRT1/Sir2 Deacetylase Fluorometric Assay Kit (Test Example 2); format: cell-based; settings: 10 ng/ml final concentration; cell crude extract
Description: Human epidermal keratinocytes were treated in the same manner as in Test Example 1, except that the final concentration of the hyaluronic acid fragment was 10 ng/ml, the size thereof being four sugar units (4mer), six sugar units (6mer), or 10 sugar units (10mer), while measuring the sirtuin enzymatic activity (sirt1 enzymatic activity) in the cell solution thereof. For purposes of comparison, 10 kDa or 900 kDa hyaluronic acid, and resveratrol, a known sirtuin activator, were likewise tested at 10 ng/ml final concentration. A human sirtuin recombinant protein (recombinant human sirt1) produced through genetic recombination techniques was used as a substance for verification of the measurement system. Sirtuin enzymatic activity in the cell crude extract was measured with the CycLex SIRT1/Sir2 Deacetylase Fluorometric Assay Kit (trade name of CycLex), following the protocol of the kit.

[3] = system: activated (phosphorylated) NF-kappaB; test: NF-kappaB expression in TNF-α treated human large intestine epithelial cells, fluorescent staining (Test Example 9); format: cell-based; settings: TNF-α treatment, 10 ng/ml test substance, 24 hours
Description: It was investigated whether the expression of NF-kappaB in human large intestine epithelial cells (HT29 cells) when subjected to TNF-α treatment is affected by treatment with the hyaluronic acid fragment. NF-kappaB is a transcription factor involved in inflammation, tissue destruction, and the like.
DMEM culture medium (made by Wako Pure Chemical Industries, Ltd.) to which TNF-α and the hyaluronic acid fragment were added, and DMEM culture medium from which these were omitted, were prepared, and human large intestine epithelial cells were treated for 24 hours in these culture media. Thereafter, the cells were stained with an antibody that recognizes activated (phosphorylated) NF-kappaB.
The vertical axis of the graph indicates fluorescent intensity. It may be appreciated that, in cells to which four- to eight-unit hyaluronic acid fragments were added, the expression level of NF-kappaB is reduced in statistically significant fashion.

[4] = system: Hepatocyte growth factor expression (mRNA); test: Induction of hepatocyte growth factor in human epidermal keratinocytes, DNA microarray (Test Example 13); format: cell-based; settings: 10 ng/ml, 24 hours; Cy5, DNA microarray
Description: Human epidermal keratinocytes (normal human keratinocytes from a person) were cultured respectively in a culture medium containing 10 ng/ml of four-unit hyaluronic acid fragment (4mer), and a culture medium containing no hyaluronic acid fragments (untreated), for 24 hours. For the culture medium, a serum-free medium for use with normal human keratinocytes, made by DS Pharma Biomedical Co. Ltd. was employed. After culture, the cells were recovered and analyzed with a DNA microarray (DNA chip).

[5] = system: human neural stem cells (neurospheres); test: Action on human neural stem cells, Nestin/Tubulin double staining (Test Example 7); format: cell-based; settings: 10 ng/ml, 12 days
Description: Human neural stem cells (neurospheres) (trade name Gibco Human Neural Stem Cells (H9-Derived) made by Gibco) were cultured in Neurobasal Media (trade name, made by Gibco) culture medium at 37° C. under 5% CO2, and the cells were recovered by trypsin treatment. The cells were then inoculated into a 96-well plate (100 μL per well) and cultured overnight. Following completion of culture, the culture broth from each well was transferred to Neurobasal Media (trade name, made by Gibco) culture medium to which no hyaluronic acid fragments were added, or to the same medium to which hyaluronic acid fragment (L3mer) had been added to a final concentration of 10 ng/ml, and cultured for 12 days
After 12 days had passed, the cells in each well were double-stained with anti human Nestin antibody and anti human Tubulin antibody. Nestin is a protein that is specifically expressed in neural stem cells, and is a neural stem cell marker. The stained cells were observed under a microscope (made by Nikon), taking photographs of cell morphology and stained images of cells.

[6] = system: liver function; test: Concanavalin A liver damage model, blood GOT and GPT (Test Example 15); format: in vivo; settings: concanavalin A 20 mg/kg caudal vein, fragment oral, after 24 hours, 20-month old female Balb/c mice
Description: The effect of action of the hyaluronic acid fragment on the liver of aged […] was investigated. Specifically, 20-month old (aged) female Balb/c mice were administered through the caudal vein with concanavalin A (20 mg/kg of body weight) one time, as a liver damage model. Subsequent to administration of concanavalin A, hyaluronic acid fragment (4mer or L3mer) were administered orally, and the effect thereof was investigated. Impairment of liver function was evaluated after 24 hours, by drawing blood and measuring the GOT and GPT values in the blood.

[7] = system: human neural stem cells (neurospheres); test: Hydrogen peroxide induced aging of human neural stem cells, microscopy (Test Example 20); format: cell-based; settings: 24 hours
Description: It was investigated whether the process, in which human neural stem cells (neurospheres) experienced cellular aging (vacuolar degeneration and hypertrophy) when treated with hydrogen peroxide, is affected by treatment with the hyaluronic acid fragment. Specifically, the following test was performed.
Human neural stem cells (neurospheres) (trade name Gibco Human Neural Stem Cells (H9-Derived) made by Gibco) were cultured in Neurobasal Media (trade name, made by Gibco) culture medium at 37° C. under 5% CO2. Hydrogen peroxide was added to the culture medium to a final concentration of 10 μM to bring about stimulation for a 15-minute period, and the culture broth was then transferred to Neurobasal Media culture medium (made by Gibco) containing no hyaluronic acid fragments; to the same culture medium containing hyaluronic acid fragment (L3mer) in a final concentration of 100 ng/ml; or to the same culture medium containing hyaluronic acid fragment (L3mer) plus TLR4/MD2 added to a final concentration of 10 μg/ml, and cultured for 24 hours.
After 24 hours, the cells were examined with an inverted microscope.

Row | SMILES | Average staining intensity ([1]; 0.01 ng/ml) | Average staining intensity ([1]; 0.1 ng/ml) | Average staining intensity ([1]; 1.0 ng/ml) | Average staining intensity ([1]; 10 ng/ml) | sirtuin enzymatic activity (sirt1 enzymatic activity) compared with negative control [2] | expression level of NF-kappaB (fluorescent intensity) [3] | Fluorescent intensity, Hepatocyte growth factor expression in keratinocytes (mRNA) [4] | expression of Nestin and Tubulin [5] | process formation (morphology) [5] | impairment of liver function (GOT values in the blood) [6] | suppression of cellular aging with TLR4/MD2 added ([7]; 100 ng/ml plus TLR4/MD2 10 μg/ml) | hydrogen peroxide-induced cellular aging (vacuolar degeneration and hypertrophy) ([7]; hydrogen peroxide 10 μM, 100 ng/ml)
1 | CC(=O)N[C@H]1[C@H](O[C@H]2[C@H](O)[C@@H](O)[C@H](O[C@H]3[C@H](O)[C@@H](CO)OC(O)[C@@H]3NC(C)=O)O[C@@H]2C(=O)O)O[C@H](CO)[C@@H](O)[C@@H]1O[C@@H]1O[C@H](C(=O)O)[C@@H](O)[C@H](O)[C@H]1O (stereo partly drawn) [4mer, GlcA(-GlcNAc-GlcA)1-GlcNAc] | 6.33 | 6.35 | 6.52 | 6.54 | approximately triple | inhibited to the greatest extent | 200.40 | – | – | – | – | –
2 | CC(=O)NC1C(O[C@@H]2OC(C(=O)O)[C@@H](O)C(O)C2O)[C@H](O)C(CO)O[C@H]1O[C@@H]1C(C(=O)O)O[C@@H](OCCCN=[N+]=[N-])C(O)C1O (stereo partly drawn) [L3mer] | – | – | – | – | – | – | – | expression of both Nestin and Tubulin was confirmed | process formation was confirmed | markedly better with the L3mer than with the 4mer | inhibited by addition of TLR4/MD2 | suppressed
